Source: publication PMC8100298, “Histone deacetylase inhibitor resminostat in combination with sorafenib counteracts platelet-mediated pro-tumoral effects in hepatocellular carcinoma” (Scientific Reports, 2021)
Like-named read-outs stand apart in the source and are kept apart here.

Tests used:
SNU-475 = assay: Proliferation assay; type: cell-based; conditions: for EC50: Homo sapiens, read-out: EC50, anti-proliferative activity of kinase inhibitors
From the text: (§1) The cell lines HepG2 (ACC180, RRID:CVCL_0027; DMSZ, Braunschweig Germany), SNU-475 (CRL-2236, Lot. 58483227, RRID:CVCL_0497; ATCC, Manassas, Virginia, US), SNU-387 (CRL-2237, Lot. 58483192, RRID:CVCL_0250; ATCC, Virginia, US), PLC/PRF/5 (300315, Lot. 812, RRID:CVCL_0485; CLS Cell Lines Service GmbH, Eppelheim, Germany) and HuH-7 (JCRB0403, Lot. 2272008, RRID:CVCL_0336; JCRB Cell Bank, Japan) were propagated according to the distributor’s guidelines. The authenticity of the cell lines was confirmed by short tandem repeat (STR) analysis (DSMZ, Braunschweig, Germany). Mycoplasma contamination was ruled out by PCR testing. For assays with platelet lysate (PL), FBS was substituted with 10% PLTMax Human Platelet Lysate (Cat. Nr. SCM141, Lot Number VP1602259; Millipore, Burlington, Massachusetts, US). The PL was supplemented with 20 U/ml Heparin (Heparin sodium salt from porcine intestinal mucosa, H4784-250MG; Sigma-Aldrich, Taufkirchen, Germany) to prevent coagulation.
(§2) Prior to the assay, the optimal seeding density was determined for each cell line to obtain an exponential growth during the experiment (2000 to 6000 cells per 96-well). Drug dilution series with 8 concentrations were prepared for EC50 determinations of single drugs. Three wells for each concentration were seeded (technical replicates). For drug combinations, dilution series of six concentrations for each drug alone or in combination at equal ratio were prepared. After 4 h of cell seeding, the drugs were added to the cells. Each 96-well plate contained a vehicle control (0.1% or 0.2% DMSO), a death control Ro 106-9920 (Tocris Cookson Ltd., Bristol, UK) a growth control (untreated cells compared to vehicle treated cells), and blank wells without cells. The proliferation assay was stopped after 4 days by crystal violet staining of the cells (0.5% in 20% methanol). Following extraction of the crystal violet with 8% acetic acid, the eluates were quantified photometrically at 570 nm and the reference wavelength 690 nm in an absorbance microplate reader (Tecan Sunrise; Tecan, Männedorf, Switzerland). Only readouts from 96-well plates with a Z-factor between 0.5 and 1.0 were used. Blank OD values were subtracted from the mean OD values. Nonlinear curve fitting and EC50 calculation was performed with Excel Solver.

PLC/PRF/5 = assay: Proliferation assay; type: cell-based; conditions: for EC50: Homo sapiens
From the text: as §1, §2

[1] = tested on: PLC/PRF/5 and SNU-475 cells; assay: ELISA for growth factors PDGF-AA, TGF and VEGF; type: cell-based; conditions: tissue culture supernatants, with or without platelets (Fig. S4B)
Experimental: A. The growth factors PDGF-AA, TGFβ and VEGF were determined from tissue culture supernatants by ELISA. PLC/PRF/5 and SNU-475 cells were cultured with increasing […]
(1 picture or pasted object on this page, not shown here) […]
amounts of platelets. In parallel, platelets were cultured without cells to determine if the growth factors were platelet derived.
B. ELSIAs for PDGF-AA, TGFβ and VEGF were performed after drug treatment of PC/PRF/5 and SNU-475 cells. Cells were cultured as indicated with or without platelets and treated with resminostat, sorafenib, the drug combination or vehicle control 0.1% DMSO.
Table S1_ EC50 cell line screen
S1D. The cancer cell lines, their tissue origins and the respective EC50 values are shown.
Each cell line was seeded in duplicates.

[2] = tested on: Hep3B2.1-7 human hepatic carcinoma
From the text: The orthotopic xenograft mouse model of Hep3B2.1–7 human hepatic carcinoma was previously established. Tumors were created by injection of 2.5 × 10^6 Hep3B2.1-7 cells (ATCC, RRID:CVCL_0326; Virginia, Manassas, USA) into the main lobe of the liver of anaesthetized female SCID mice (C.B-17-Igh-1bPrkdc(scid)). […] Treatments were continued for 21 days. Treatment of animals was ceased when the body weight dropped below 85% of that on entry of the study. Only mice culled at the termination date were used to determine the tumor weight. The experiment was conducted by vivoPharm pty Ltd (Bundoora, Australia) in accordance with the principles outlined in the “Australian Code of Practice for the Care and Use of Animals for Scientific Purposes”, 7th Edition, 2004 (National Health and Medical Research Council, Canberra, Australia). All procedures involving animals were reviewed and approved by the University of Adelaide Animal Ethics Committee. The study was carried out in compliance with the ARRIVE guidelines (http://www.nc3rs.org.uk/page.asp?id=1357). […]
invasion assay. The ODs of the invaded cells were normalized relative to ODs from tissue […]
Orthotopic xenograft mouse model
The orthotopic xenograft mouse model of Hep3B2.1-7 human hepatic carcinom a was previously established. The experiment was conducted by vivoPharm pty Ltd (Australia) in accordance with the principles outlined in the Australian Code of Practice for the Care and Use of Animals for Scientific Purposes, 7th Edition, 2004 (National Health and Medical Research Council). Procedures involving the care and use of animals in thi s study were reviewed and approved by the University of Adelaide Animal Ethics Committee. The study was carried out in compliance with the ARRIVE guidelines
(http://www.nc3rs.org.uk/page.asp?id=1357).
The animals were delivered to the test facility 1 1 days prior inoculation. On arrival, all animals received a detailed physical examination, including body weight measurement by the […]
technical staff. […] Each a nimal was identified by a transponder (Bar Code Data Systems Pty Ltd, Botany Bay, NSW, Australia) that could be scanned with a barcode reader (DataMars LabMax I). The transponder was implanted by subcutaneous injection between the shoulder blades while the mouse was under isoflurane-induced anaesthesia. The animals were housed in groups of six in micro-isolator cages (two cages per group). Each cage was clearly labelled with a cage card indicating study number, group, gender, and prescribed dose concentration and dose volume. The animals were kept in a controlled environment (targeted ranges: temperature 21 ± 3°C, humidity 30 -70%, 15 air changes per hour), with a light/dark cycle each of 12 hours, and under barrier (quarantine) conditions. Temperature and relative humidity were monitored continuously. All animals were subjected to the same environmental conditions. A standard certified commercial rodent diet (Rat and Mouse Cubes, Specialty Feeds Pty Ltd, Glen Forrest, WA, Australia) and tap water were provided to the animals ad libitum. Food supply was sterilized by autoclaving, and water […]
supply was sterilized by acidification with hydrochloric acid (pH 2.4-2.7) by Laboratory Animal Services, University of Adelaide (Adelaide, SA, Australia). Additional feed (a nimal seed, Magill Grain Store, Magill, SA, Australia), as well as wet standard feed was provided to all animals from Day 7 onwards, as a measure to minimize body w eight loss. The extent of adverse reaction was assessed during the study and mice were culled if severe adverse […]
The age range of the mice were 12-16 weeks at
Hep3B2.1-7 human hepatic carcinoma cells were sourced from the American Type Culture […]
Collection (ATCC; Virginia, USA).

SNU-387 = assay: Proliferation assay; type: cell-based; conditions: SNU-387 vs HepG2, PLC/PRF/5, HuH-7 (Fig. 1F)
From the text: as §1, §2

HepG2 = assay: Proliferation assay; type: cell-based; conditions: for EC50: Homo sapiens, 96 h, 4 days
From the text: as §1, §2

HuH-7 = assay: Proliferation assay; type: cell-based; conditions: for EC50: Homo sapiens, 96 h, 4 days
From the text: as §1, §2

[3] = PLC/PRF/5 (Fig. 6B), read-out: EC50, anti-proliferative activity of kinase inhibitors

Compound | EC50 (SNU-475; SNU-475 (Fig. 6B)) | EC50 (PLC/PRF/5; [3]) | EC50, anti-proliferative activity of kinase inhibitors (SNU-475; SNU-475 (Fig. 6B)) | growth factors released by platelets or secreted by HCC cells [1] | Tumour weight, Mean ([2]; 40 mg/kg oral once daily, 21 days, SCID mice) | tumor weight compared to the vehicle control ([2]; daily resminostat 15 and 40 mg/kg, sorafenib 40 mg/kg, or combination (Fig. 1B)) | EC50 compared to the epithelial cell lines (SNU-387) | Ratio PL/FBS (HepG2; HepG2, ratio of PL/FBS EC50s) | EC50 (HepG2; HepG2, fetal bovine serum, read-out: EC50 in FBS) | EC50 (HepG2; HepG2, platelet lysate, absolute EC50, read-out: EC50 in PL, absolute EC50 (*)) | EC50 compared to the epithelial cell lines (SNU-475; SNU-475 vs HepG2, PLC/PRF/5, HuH-7 (Fig. 1F)) | EC50 (PLC/PRF/5; 96 h, PLC/PRF/5, fetal bovine serum, 4 days, read-out: EC50 in FBS) | EC50 (PLC/PRF/5; 96 h, PLC/PRF/5, platelet lysate, 4 days, absolute EC50, read-out: EC50 in PL, absolute EC50 (*)) | effect of platelet factors on potency and efficacy (PLC/PRF/5; PLC/PRF/5, platelet lysate vs FBS dose-response curves (Fig. 2A)) | maximal inhibition (PLC/PRF/5; PLC/PRF/5, platelet lysate, at 25 µM) | Ratio PL/FBS (PLC/PRF/5; PLC/PRF/5, ratio of PL/FBS EC50s) | EC50 (HuH-7; HuH-7, fetal bovine serum, read-out: EC50 in FBS) | EC50 (HuH-7; HuH-7, platelet lysate, absolute EC50, read-out: EC50 in PL, absolute EC50 (*)) | Ratio PL/FBS (HuH-7; HuH-7, ratio of PL/FBS EC50s)
C[C@@H](Oc1cc(-c2cnn(C3CCNCC3)c2)cnc1N)c1c(Cl)ccc(F)c1Cl [crizotinib, Crizotinib] | ~5 µM | ~5 µM | – | – | – | – | – | – | – | – | – | – | – | – | – | – | – | – | –
COc1cc2nccc(Oc3ccc(NC(=O)NC4CC4)c(Cl)c3)c2cc1C(N)=O [lenvatinib, Lenvatinib] | > 25 µM | ~17 µM | could not be determined due to a lack of efficacy | – | – | – | – | – | – | – | – | – | – | – | – | – | – | – | –
CNC(=O)c1cc(Oc2ccc(NC(=O)Nc3ccc(Cl)c(C(F)(F)F)c3)cc2)ccn1 [sorafenib, Sorafenib] | – | – | – | not consistantly affected | 1.11 g | significantly reduced tumor weight | about three-fold higher | 6.4 | 1.8 ± 0.4 µM | 11.5 ± 1.3 µM | about three-fold higher | 4.8 ± 0.6 µM | 22.1 ± 2.5 µM | reduced | not reached | 4.6 | 4.4 ± 0.9 µM | 14 ± 2.5 µM | 3.2
